Reference: article PMC12133000 (PLOS One, 2025)
Values joined by “and” are separate entries in the source; they are usually repeats but may differ in a detail not shown here. Identical values can stand only once. Like-named read-outs stand apart in the source and are kept apart here.

Test: Pharmacokinetics of rivaroxaban in rats after avitinib or gefitinib pretreatment
Format: in vivo, Sprague–Dawley (SD) rats
Details: for MRT last / AUC(0-inf) / Tmax / AUC(0-t) / CL/F / Cmax / half-life / MRT inf / Vd/F: male, Sprague-Dawley, rat, plasma, po, 10 mg/kg; for AUC(0-t): read-out: AUC(0–t); for CL/F: read-out: CLz/F (converted); for Cmax: read-out: Cmax; for half-life: read-out: t1/2 (converted); for MRT inf: read-out: MRT(0–∞); for Vd/F: read-out: Vz/F
Experimental: Eighteen male Sprague–Dawley (SD) rats weighing 300 ± 20 g were provided by the Experimental Animal Center of Wenzhou Medical University (Wenzhou, China) and kept under controlled conditions at a temperature of 23 ± 2 °C, relative humidity of 50 ± 10%, and 12 h light–dark cycle. Eighteen male SD rats were randomly assigned to three groups: avitinib, gefitinib, and control, with six rats per group. Prior to the experiment, the rats were not administered any other medications and fasted for 12 h. The experimental procedures and protocols adhered to Animal Ethics standards and were approved by the Animal Care and Use Committee of Wenzhou Medical University (approval no. wydw2019–650). All rats were anesthetized with sodium pentobarbital (40mg/kg, i.p) to relieve pain. The rats were killed through cervical dislocation.
Prior to the experiment in vivo, the six rats in the avitinib group were administered 30 mg/kg avitinib and 0.5% sodium carboxymethyl cellulose (CMC-Na) solution by gavage daily for 7 d. […] The supernatant was collected and stored at −80 °C. After thawing, 50 μL of plasma was extracted; 100 μL of acetonitrile solution containing midazolam (200 ng/mL) was then added to induce protein precipitation. After vortexing for 30 s and centrifuging at 13,000 rpm for 5 min, the […].
All assays were performed in triplicate, and the results are expressed as mean ± standard deviation. DAS software v. […] SPSS v. 25.0 (IBM, NY, USA) was used for data processing. Student’s t-tests were used to detect differences between groups. Differences with p < 0.05 were considered statistically significant.

[1] = rats, rivaroxaban 10 mg/kg oral, avitinib group (30 mg/kg pretreatment)
[2] = rats, rivaroxaban 10 mg/kg oral, control group (CMC-Na only)
[3] = rats, rivaroxaban 10 mg/kg oral, gefitinib group (25 mg/kg pretreatment)

`O=C(NC[C@H]1CN(c2ccc(N3CCOCC3=O)cc2)C(=O)O1)c1ccc(Cl)s1` [rivaroxaban, Rivaroxaban] showed an MRT last (gefitinib group, single rats No1-No6, read-out: MRT(0-t)) of 5.59 h, an AUC(0-inf) [1] of 9350 ± 3840 ng·h/mL and a Tmax [1] of 1.33 ± 0.82 h. It also gave an AUC(0-t) [1] of 9000 ± 3740 ng·h/mL, a CL/F [1] of 19.7 mL/min/kg and a Cmax [1] of 1810 ± 619 ng/mL. For the same compound, the MRT last (rats, rivaroxaban 10 mg/kg oral, avitinib group (30 mg/kg pretreatment), read-out: MRT(0–t)) was 3.79 ± 0.66 h, the half-life [1] was 2.2 ± 1.07 h and the AUC(0-inf) [2] was 2280 ± 870 ng·h/mL. It also gave a Tmax [2] of 0.83 ± 0.26 h, an AUC(0-t) [2] of 2250 ± 853 ng·h/mL and a CL/F [2] of 80.8 mL/min/kg. For the same compound, the Cmax [2] was 441 ± 81.8 ng/mL, the MRT last (rats, rivaroxaban 10 mg/kg oral, control group (CMC-Na only), read-out: MRT(0–t)) was 3.79 ± 1.08 h and the MRT inf [2] was 3.95 ± 1.05 h. The Vd/F [2] was 11.5 ± 2.63 L/kg, the half-life [2] was 1.61 ± 0.61 h and the AUC(0-inf) [3] was 76000 ± 20800 ng·h/mL. The Tmax [3] was 3.17 ± 0.98 h, the AUC(0-t) [3] was 58000 ± 5890 ng·h/mL and the CL/F [3] was 2.33 mL/min/kg. It also gave a Cmax [3] of 8310 ± 2100 ng/mL, an MRT last (rats, rivaroxaban 10 mg/kg oral, gefitinib group (25 mg/kg pretreatment), read-out: MRT(0–t)) of 4.9 ± 0.47 h and an MRT inf [3] of 8.23 ± 3.61 h. For the same compound, the Vd/F [3] was 0.87 ± 0.28 L/kg, the half-life [3] was 4.81 ± 2.7 h and the “MRT(0–∞)” value [1] was 4.26 ± 1.12 h. The rivaroxaban (吉非替尼 (gefitinib) group, individual rats 7-12, time 0.0833) was 778.8 ng/mL and 334.9 ng/mL and 724.5 ng/mL and 847.1 ng/mL and 256.3 ng/mL and 816.3 ng/mL, the rivaroxaban (吉非替尼 (gefitinib) group, individual rats 7-12, time 0.25) was 1686.1 ng/mL and 1476.8 ng/mL and 2176.1 ng/mL and 1686 ng/mL and 1747.2 ng/mL and the rivaroxaban (吉非替尼 (gefitinib) group, individual rats 7-12, time 0.5) was 3330.8 ng/mL and 4408.9 ng/mL and 4082.8 ng/mL and 3161.2 ng/mL and 3240.3 ng/mL. For the same compound, the rivaroxaban (吉非替尼 (gefitinib) group, individual rats 7-12, time 1) was 5012 ng/mL and 6707.2 ng/mL and 5280.7 ng/mL and 6110.2 ng/mL and 4481.1 ng/mL, the rivaroxaban (吉非替尼 (gefitinib) group, individual rats 7-12, time 2) was 8309.8 ng/mL and 7015.4 ng/mL and 10641.7 ng/mL and 6946 ng/mL and the rivaroxaban (吉非替尼 (gefitinib) group, individual rats 7-12, time 3) was 6431.9 ng/mL and 10386.8 ng/mL and 7734.1 ng/mL. For the same compound, the rivaroxaban (吉非替尼 (gefitinib) group, individual rats 7-12, time 4) was 6136.6 ng/mL and 9214.1 ng/mL and 6949.9 ng/mL, the rivaroxaban (吉非替尼 (gefitinib) group, individual rats 7-12, time 6) was 6115 ng/mL and 5681 ng/mL and 5825.4 ng/mL and the rivaroxaban (吉非替尼 (gefitinib) group, individual rats 7-12, time 8) was 3374.5 ng/mL and 2542.2 ng/mL and 4779.1 ng/mL. For the same compound, the rivaroxaban (吉非替尼 (gefitinib) group, individual rats 7-12, time 12) was 732.7 ng/mL and 1716.7 ng/mL and 1654.8 ng/mL and 917.3 ng/mL, the rivaroxaban (对照 (control, rivaroxaban alone) group, individual rats 13-18, time 0.0833) was 278.3 ng/mL and 142.7 ng/mL and 136.5 ng/mL and 68.9 ng/mL and 158.6 ng/mL and 163.2 ng/mL and the rivaroxaban (对照 (control, rivaroxaban alone) group, individual rats 13-18, time 0.25) was 264.9 ng/mL and 294.2 ng/mL and 171.8 ng/mL and 256.9 ng/mL and 261.1 ng/mL. The rivaroxaban (对照 (control, rivaroxaban alone) group, individual rats 13-18, time 0.5) was 465.3 ng/mL and 337.5 ng/mL and 461.6 ng/mL and 378.7 ng/mL and 305.8 ng/mL, the rivaroxaban (对照 (control, rivaroxaban alone) group, individual rats 13-18, time 2) was 261.4 ng/ml (2×) and 475.9 ng/ml and 181.6 ng/ml and 351.5 ng/ml and 418.6 ng/ml and 334.6 ng/ml and the rivaroxaban (对照 (control, rivaroxaban alone) group, individual rats 13-18, time 3) was 240.8 ng/mL and 431.8 ng/mL and 207.2 ng/mL and 349.6 ng/mL. For the same compound, the rivaroxaban (艾维替尼 (avitinib) group, individual rats 1-6, time 0.0833) was 380.2 ng/mL and 320.6 ng/mL and 287.7 ng/mL and 191 ng/mL and 288.9 ng/mL and 237.4 ng/mL, the rivaroxaban (艾维替尼 (avitinib) group, individual rats 1-6, time 0.25) was 386.7 ng/ml (2×) and 727.9 ng/ml and 581.8 ng/ml and 614.9 ng/ml and 286.3 ng/ml and 927.5 ng/ml and the rivaroxaban (艾维替尼 (avitinib) group, individual rats 1-6, time 0.5) was 990.9 ng/ml (2×) and 1066.3 ng/ml and 1018.5 ng/ml and 978.4 ng/ml and 583.2 ng/ml and 1904.4 ng/ml. For the same compound, the rivaroxaban (艾维替尼 (avitinib) group, individual rats 1-6, time 1) was 1423.2 ng/ml (2×) and 1593.7 ng/ml and 2386.3 ng/ml and 1162.7 ng/ml and 1561.2 ng/ml and 2231.2 ng/ml.
